Columns and labels:
Experiment in all cases: relative viability (nuclei count vs DMSO), 5 days (fraction); higher = more cells survive
[1] = compound: CCN1C(=O)C2=CC(=C(N=C2N(C1=O)C3CC3)N)C(=O)N
Outline: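 Hoechst staining, done together with fixation and permeabilisation, marked nuclei for 4× imaging and MetaXpress counting. This followed 5 days without medium change after lung cancer cell lines, kept overnight at 37 °C in 1536-well plates, were pinned with five library-drug doses (not always all listed) spaced by √10 on vehicle-anchored plates. Viability is the ratio of treated-well to vehicle-well nuclei, expressed as a median across plates. Plates passed only at control CV below 25% with at least one doubling.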

[2] = compound: CCN1C(=O)C2=CC(=C(N=C2N(C1=O)C3CC3)N)C(=O)N + CC1(C)CCC(c2ccc(Cl)cc2)=C(CN2CCN(c3ccc(C(=O)NS(=O)(=O)c4ccc(N[C@H](CCN5CCOCC5)CSc5ccccc5)c(S(=O)(=O)C(F)(F)F)c4)cc3)CC2)C1 [Navitoclax] (partner 0.5 µM)
Outline: (§1)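 After 5 days of treatment, lung cancer cells in 1536-well plates were fixed and stained in a single step (final 0.05% Triton X-100, 1% formaldehyde, 1 ug/ml Hoechst) and their nuclei counted on 4× images. Treatment had been applied by pin tool the day after seeding as one drug alone or as a fixed anchor-drug dose with five library-drug doses (not always all listed) in √10 steps. Relative viability is the nuclei count of treated wells divided by that of vehicle wells, and values are medians of duplicate plates.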

[3] = compound: CCN1C(=O)C2=CC(=C(N=C2N(C1=O)C3CC3)N)C(=O)N + O=C(CCCCCCC(=O)Nc1ccccc1)NO [Vorinostat] (partner 1 µM)
Outline: as §1

[4] = compound: CCN1C(=O)C2=CC(=C(N=C2N(C1=O)C3CC3)N)C(=O)N + COc1cc2c(Oc3ccc(NC(=O)C4(C(=O)Nc5ccc(F)cc5)CC4)cc3F)ccnc2cc1OCCCN1CCOCC1 [Foretinib] (partner 0.25 µM)
Outline: as §1

[5] = compound: CCN1C(=O)C2=CC(=C(N=C2N(C1=O)C3CC3)N)C(=O)N + CS(=O)(=O)N1CCN(Cc2cc3nc(-c4cccc5[nH]ncc45)nc(N4CCOCC4)c3s2)CC1 [Pictilisib] (partner 1 µM)
Outline: as §1

[6] = compound: CCN1C(=O)C2=CC(=C(N=C2N(C1=O)C3CC3)N)C(=O)N + C[C@@H](Oc1cc(-c2cnn(C3CCNCC3)c2)cnc1N)c1c(Cl)ccc(F)c1Cl [Crizotinib] (partner 1 µM)
Outline: as §1

[7] = compound: CCN1C(=O)C2=CC(=C(N=C2N(C1=O)C3CC3)N)C(=O)N + Cc1nc(NC(=O)N2CCC[C@H]2C(N)=O)sc1-c1ccnc(C(C)(C)C(F)(F)F)c1 [Alpelisib] (partner 2 µM)
Outline: as §1

[8] = compound: CCN1C(=O)C2=CC(=C(N=C2N(C1=O)C3CC3)N)C(=O)N + CC(C)C[C@H](NC(=O)[C@H](Cc1ccccc1)NC(=O)c1cnccn1)B(O)O [Bortezomib] (partner 0.002 µM)
Outline: as §1

[9] = compound: CCN1C(=O)C2=CC(=C(N=C2N(C1=O)C3CC3)N)C(=O)N + C[C@]1(O)C[C@@H](c2nc(-c3ccc4ccc(-c5ccccc5)nc4c3)c3c(N)nccn32)C1 [Linsitinib] (partner 1 µM)
Outline: as §1

[10] = compound: CCN1C(=O)C2=CC(=C(N=C2N(C1=O)C3CC3)N)C(=O)N + O=C(c1cc(Cc2n[nH]c(=O)c3ccccc23)ccc1F)N1CCN(C(=O)C2CC2)CC1 [Olaparib] (partner 8 µM)
Outline: as §1

[11] = compound: CCN1C(=O)C2=CC(=C(N=C2N(C1=O)C3CC3)N)C(=O)N + CS(=O)(=O)CCNCc1ccc(-c2ccc3ncnc(Nc4ccc(OCc5cccc(F)c5)c(Cl)c4)c3c2)o1 [Lapatinib] (partner 2 µM)
Outline: as §1

IA-LM
relative viability ([1]; 0.253 µM): 0.952 | relative viability ([1]; 0.8 µM): 0.75 | relative viability ([1]; 2.53 µM): 0.877 | relative viability ([1]; 8 µM): 0.825 | relative viability ([2]; first compound 0.253 µM): 0.815 | relative viability ([2]; first compound 0.8 µM): 0.583 | relative viability ([2]; first compound 2.53 µM): 0.768 | relative viability ([2]; first compound 8 µM): 0.791 | relative viability ([3]; first compound 0.253 µM): 0.983 | relative viability ([3]; first compound 0.8 µM): 0.873 | relative viability ([3]; first compound 2.53 µM): 0.905 | relative viability ([3]; first compound 8 µM): 1.1 | relative viability ([4]; first compound 0.253 µM): 1.21 | relative viability ([4]; first compound 0.8 µM): 1.03 | relative viability ([4]; first compound 2.53 µM): 0.963 | relative viability ([4]; first compound 8 µM): 1.44 | relative viability ([5]; first compound 0.253 µM): 0.358 | relative viability ([5]; first compound 0.8 µM): 0.356 | relative viability ([5]; first compound 2.53 µM): 0.343 | relative viability ([5]; first compound 8 µM): 0.339 | relative viability ([6]; first compound 0.253 µM): 0.816 | relative viability ([6]; first compound 0.8 µM): 0.662 | relative viability ([6]; first compound 2.53 µM): 0.797 | relative viability ([6]; first compound 8 µM): 1.14 | relative viability ([7]; first compound 0.253 µM): 0.743 | relative viability ([7]; first compound 0.8 µM): 0.816 | relative viability ([7]; first compound 2.53 µM): 0.584 | relative viability ([7]; first compound 8 µM): 0.696 | relative viability ([8]; first compound 0.253 µM): 0.826 | relative viability ([8]; first compound 0.8 µM): 0.702 | relative viability ([8]; first compound 2.53 µM): 0.807 | relative viability ([8]; first compound 8 µM): 0.817 | relative viability ([9]; first compound 0.253 µM): 0.629 | relative viability ([9]; first compound 0.8 µM): 0.618 | relative viability ([9]; first compound 2.53 µM): 0.492 | relative viability ([9]; first compound 8 µM): 0.553 | relative viability ([10]; first compound 0.253 µM): 0.92 | relative viability ([10]; first compound 0.8 µM): 0.818 | relative viability ([10]; first compound 2.53 µM): 0.739 | relative viability ([10]; first compound 8 µM): 0.845 | relative viability ([11]; first compound 0.253 µM): 0.877 | relative viability ([11]; first compound 0.8 µM): 0.902 | relative viability ([11]; first compound 2.53 µM): 0.88 | relative viability ([11]; first compound 8 µM): 0.747

NCI-H1299
relative viability ([1]; 0.253 µM): 1.02 | relative viability ([1]; 0.8 µM): 1.02 | relative viability ([1]; 2.53 µM): 0.986 | relative viability ([1]; 8 µM): 0.976 | relative viability ([2]; first compound 0.253 µM): 1.07 | relative viability ([2]; first compound 0.8 µM): 1.06 | relative viability ([2]; first compound 2.53 µM): 1.04 | relative viability ([2]; first compound 8 µM): 1.01 | relative viability ([4]; first compound 0.253 µM): 1.16 | relative viability ([4]; first compound 0.8 µM): 1.1 | relative viability ([4]; first compound 2.53 µM): 1.08 | relative viability ([4]; first compound 8 µM): 1.05 | relative viability ([5]; first compound 0.253 µM): 0.879 | relative viability ([5]; first compound 0.8 µM): 0.81 | relative viability ([5]; first compound 2.53 µM): 0.701 | relative viability ([5]; first compound 8 µM): 0.962 | relative viability ([6]; first compound 0.253 µM): 1 | relative viability ([6]; first compound 0.8 µM): 0.914 | relative viability ([6]; first compound 2.53 µM): 0.924 | relative viability ([6]; first compound 8 µM): 0.966 | relative viability ([7]; first compound 0.253 µM): 1.01 | relative viability ([7]; first compound 0.8 µM): 1.15 | relative viability ([7]; first compound 2.53 µM): 1.05 | relative viability ([7]; first compound 8 µM): 1.08 | relative viability ([8]; first compound 0.253 µM): 1.01 | relative viability ([8]; first compound 0.8 µM): 1.01 | relative viability ([8]; first compound 2.53 µM): 1 | relative viability ([8]; first compound 8 µM): 0.999 | relative viability ([9]; first compound 0.253 µM): 0.991 | relative viability ([9]; first compound 0.8 µM): 0.98 | relative viability ([9]; first compound 2.53 µM): 0.93 | relative viability ([9]; first compound 8 µM): 0.982 | relative viability ([10]; first compound 0.253 µM): 0.922 | relative viability ([10]; first compound 0.8 µM): 0.956 | relative viability ([10]; first compound 2.53 µM): 0.918 | relative viability ([10]; first compound 8 µM): 0.942 | relative viability ([11]; first compound 0.253 µM): 1.06 | relative viability ([11]; first compound 0.8 µM): 0.978 | relative viability ([11]; first compound 2.53 µM): 0.933 | relative viability ([11]; first compound 8 µM): 0.947

Reference: the supplement of paper PMC10307832
